This is an account of results in PMC8470881, “Membrane Interactions of Latarcins: Antimicrobial Peptides from Spider Venom” (International Journal of Molecular Sciences, 2021).

The test system of data set [1] is human red blood cells. The data set can be described thus: Hemolysis assay. To be noted: peptide concentration 256 µg/mL, 30 min, 37 °C. How it is done: A hemolysis assay was performed to determine the activity of latarcins against human red blood cells, allowing us to compare the results to those of previous experiments in which rabbit erythrocytes were used. The activity was determined for each latarcin as a function of increasing concentration, up to a maximum of 256 µg of peptides per mL. […] The percentage hemolysis of the other peptides was determined at the highest tested concentration of 256 µg/mL.
The influence of latarcins on human erythrocytes was determined by using a hemolysis assay modified from previously published methods. Blood was obtained from the blood bank of the local hospital in Karlsruhe and stabilized with citrate phosphate dextrose buffer. Erythrocyte suspension (5 mL) was taken up in Tris buffer (45 mL, 172 mM, pH 7.6) at room temperature, gently mixed, and centrifuged (1500 rpm, 10 min). The supernatant solution was removed, and Tris wash was repeated twice with 45 mL as above. The washed erythrocytes (1 mL) were suspended in 9 mL Tris buffer to make the stock cell suspension, which was then further diluted to 0.25% (v/v) at 37 °C before use. Peptide stock solutions were prepared with 1024 µg/mL in Tris buffer containing 10% DMSO, and serial dilutions were prepared in the range of 512 µg/mL to 2 µg/mL as described previously. For the positive control, Triton X-100 (200 µL of 0.2% v/v) was used, and as the negative control, Tris buffer (200 µL, 172 mM) was used. Erythrocyte stock cell suspension (200 µL) was added to each of the samples and incubated for 30 min at 37 °C with gentle shaking before determining the percentage of hemolysis as described previously.

Data set [2] in a line: Solid-state 15N-NMR (helix alignment in membrane). The data set is classed as physicochemical. Particulars: DMPC/DMPG (7/3); for NMR: orientational state of the helix: P/L = 1:100, oriented samples, solid-state 15N-NMR, 308 K. How it is done:
While OCD provides a rough picture of the peptide alignment, the helix tilt angle can be measured rather precisely by solid-state NMR using the same type of oriented membrane sample. […] If the peptides are not helical, then the orientation cannot be determined from these ^15N-NMR spectra (which is why CD/OCD need to be performed first), but other information may be available. Oriented NMR samples were prepared at a P/L of 1/100 in DMPC/DMPG (7/3), as for CD/OCD. The ^15N-NMR spectra of all latarcins are summarized in Figure 7, along with the corresponding ^31P-NMR spectra of the phospholipid component. […] This conclusion is supported by the vesicle leakage data above.
Ltc2a, with a chemical shift of 131 ppm, on the other hand, is distinctly tilted in the membrane, as was also observed in the OCD experiments. […] Ltc3a, with a chemical shift of 93 ppm, is tilted only slightly by 10–20°. […] Given that OCD had shown distinct signs of aggregation into β-sheets, we can conclude that Ltc6a binds to the membrane and perturbs the lipid bilayer, but it is not possible to determine the molecular alignment of Ltc6a when it has most likely formed aggregates.
Macroscopically oriented NMR samples were prepared by co-dissolving appropriate amounts of peptides and lipids (in 300 μL methanol, 100 μL CHCl3, and 10–20 μL Milli-Q water) and spreading them onto 23 thin glass plates of dimensions 9 mm × 7.5 mm × 0.08 mm (Marienfeld Laboratory Glassware, Lauda-Königshofen, Germany). The peptide-to-lipid ratio (P/L) is given in mol/mol. The plates were dried in air for 1 h, followed by drying under vacuum overnight. The plates were stacked and placed into a hydration chamber with 96% relative humidity at 48 °C for 18–24 h before wrapping the stack in parafilm and plastic foil for the NMR measurements. All solid-state NMR measurements were carried out on a Bruker Avance 500 MHz spectrometer (Bruker Biospin, Karlsruhe, Germany) at 308 K, as previously reported. The oriented membrane samples were placed in the flat-coil probe such that the lipid bilayer normal was aligned parallel to the magnetic field. ^31P-NMR was used to check the quality of the lipid orientation in the samples, using a Hahn echo sequence with phase cycling. The 90° pulse length was 3.9 µs, the echo time was 30 µs, and 17 kHz ^1H SPINAL64 decoupling was used. ^1H-^15N cross-polarization experiments using a CP-MOIST pulse sequence were performed using a double-tuned probe with a low-E flat-coil resonator (3 mm × 9 mm cross-section), employing a ^1H and ^15N radiofrequency field strength of 65 kHz during the cross-polarization and 25 kHz ^1H SPINAL16 [41] decoupling during acquisition. A mixing time of 500 μs was used, and 10,000 to 30,000 scans were accumulated. The acquisition time was 10 ms, and the recycle time was 3 s. The ^15N chemical shift was referenced using the ^1H-NMR signal of water in the sample.

Data set [3] in a line: Oriented circular dichroism (helix alignment in membrane). It counts as physicochemical. Particulars: DMPC/DMPG (7/3), P/L = 1:100, oriented hydrated bilayers, 30 °C. For orientation: Circular dichroism is widely used to follow secondary structure.
From the text: This is the same lipid composition and peptide-to-lipid ratio as was used in conventional CD above (see Figure 2), but in contrast to the vesicular samples containing excess water, the oriented membranes for OCD are just about saturated with water.
The sign and intensity of the 208 nm band provide a characteristic signature of the helix tilt angle in the membrane [19]. For a helical peptide that lies flat on the bilayer surface, this band is the most intense.
To prepare oriented CD (OCD) samples, latarcins depending on their solubility were dissolved either in pure MeOH or CHCl3/MeOH 1/1 (v/v) and thoroughly mixed with appropriate aliquots of DMPC/DMPG solutions (7/3 molar ratio) in the same solvent. Each co-dissolved mixture with a peptide-to-lipid molar ratio of 1/100 was deposited on a quartz glass plate using a gas-tight syringe. To achieve a spot size of 12.5 mm on the 20 mm diameter plates (Suprasil QS, Hellma Optik GmbH, Jena, Germany), a volume of ~55–60 µL was used. The organic solvents were evaporated in a gentle stream of air until the sample appeared dry. The amounts of deposited lipid and peptide on the plate were always 0.29 μmole and 2.9 nmole, respectively. The peptide-lipid-film was further dried under reduced pressure for at least 3 h. Afterwards, each plate with the dried sample was fixed and sealed by a polymer O-ring in a cylindrical sample holder. The plate with the sample and a second window plate without the sample formed a compartment for controlled hydration. The holder was assembled in a custom-built hydration cell. In the inner compartment of the sample holder, the peptide-lipid film was hydrated for about 15 h at 30 °C and 97% relative humidity via the gas phase by a saturated K2SO4 solution contained in an adjacent cavity of the hydration cell. During hydration, the lipids spontaneously align as lipid bilayers that are macroscopically oriented perpendicular to the glass surface. For the measurement, the holder was transferred to an OCD sample cell that had been developed and built in-house [20]. It is computer-controlled and can be integrated into a Jasco spectropolarimeter as an accessory. The optical path runs along the cylindrical axis of the cell, i.e., normal to the quartz glass plate surface carrying the oriented lipid film. To reduce possible spectral artifacts caused by linear dichroism (LD) or linear birefringence (LB) due to imperfections in the sample, strain in the quartz glass or imperfect alignment of the windows, the OCD spectra were recorded in steps of 45° by rotation of the cell around the beam axis [19, 20]. At each angle, two scans were recorded from 260–185 nm as an average, using a scan rate of 20 nm min^−1, 4 s response time, and 1 nm bandwidth.

For the substance H-GLKDKFKSMGEKLKQYIQTWKAKF-NH2 [Ltc4a], in data set [1], the “% Hemolysis” value is given as 12%.

Regarding “H-GFFGKMKEYFKKFGASFKRRFANLKKRL-NH2 [Ltc5]”, the “NMR: orientational state of the helix” value in data set [2] is listed as “Surface”. Further, the “OCD: orientational state of the helix” value in data set [3] was “Surface”. In data set [1], the “% Hemolysis” value was 27%.

Regarding H-SWKSMAKKLKEYMEKLKQRA-NH2 [Ltc3a], the “NMR: orientational state of the helix” value in data set [2] is “Slight tilt”. The “helix tilt angle away from the flat surface orientation” value in data set [2] (from 15N chemical shift, P/L 1/100) is 10–20 °. In data set [3], the “OCD: orientational state of the helix” value is “Slight tilt”. Besides, in data set [1], the “% Hemolysis” value turned out to be 16%.

As for “G E TF D K L K E K L K TFYQ K LV E K A ED L K G D L K A K LS-acid [Ltc7]”, the “NMR: orientational state of the helix” value in data set [2] is given as “Surface”. Moreover, in data set [3], the “OCD: orientational state of the helix” value was “Surface”. For the same substance, the “% Hemolysis” value in data set [1] is 2%.

For the substance “H-QAFQTFKPDWNKIRYDAMKMQTSLGQMKKRFNL-OH [Ltc6a]”, the “NMR: orientational state of the helix” value in data set [2] was “Aggregated”. Moreover, the “OCD: orientational state of the helix” value in data set [3] is listed as “Aggregated”. In addition, in data set [1], the “% Hemolysis” value worked out at 3%.
